The values below come from US20030121068A1, “Vector encoding suicide and marker constructs” (priority 2001, published 2003).

In one data set the test system is NIH 3T3 and CEM cells. Briefly: MTS cytotoxicity assay of transduced cells in 5-FC. Conditions: untransduced NIH 3T3 and CEM cells. In kind it is cell-based, murine fibroblasts (NIH 3T3); human T cells (CEM). The procedure: CD function was tested by cytotoxicity assays in which transduced cells are exposed to various concentrations of 5-FC in 96 well plates. Assays were initiated using 500 cells/well of NIH cells or 10,000 cells/well of CEM cells placed in culture with semi-log increasing concentrations of 5-FC for a period of 5 days. An MTS (Promega, Cell Titre 96; cat no. G5430, GI 11) colorimetric assay (based on the conversion of a tetrazolium dye to formazan) was utilized to quantitate the concentration of viable cells on day 5. The absorbance of UV light at a wavelength of 565 nm at a given concentration of 5-FC was used to calculate the LD50 using a μQuant plate reader (Bio Tek Instruments Inc.). The fusion constructs were tested alongside controls containing only the NGFR and the CD constructs.
We tested to determine if the CD construct remained functional in the fusion protein. Cells were incubated with varying concentrations of 5-FC in 96-well plates. After 5 days, MTS reagent was added as per manufacturers recommendations. The reaction involves a color change based on the number of viable cells as the tetrazolium dye changes to formazan. Absorption of UV light at 565 nm can then be used to assess viability (shown in FIG. 3 as percentage of viable cells). Untransduced cells are resistant to the effects of 5-FC. […]
On the technique in general: Tetrazolium assays rely on reduction of a dye to a coloured formazan, in cell work by metabolically active cells.

A short description of data set [1]: Adverse effects of 5-FC injections in mice. In kind it is in vivo, NOD/Scid mice. The following applies: 400 mg/kg, day 5 through 19, control mice injected with saline. Here is the method: In order to determine whether genetically engineered CEM cells could be effectively eradicated in vivo, NOD/Scid mice were utilized. After being exposed to 150 rads of radiation on day 1, four groups of mice were injected with saline (control) or 5×10^6 engineered cells on day 2. The remaining three groups included non-CD containing group (LNGFRSN), E. coli fusion construct containing group (LNGCDeSN) and the Saccharomyces fusion construct-containing group (LNGCDsSN). The genetically engineered cells were suspended in PBS at a 5×10^6 cells/0.5 ml and injected via the tail vein. Commencing day 5 though day 19, the mice were injected with 5-FC (Sigma, cat no. F-7129, lot no. 110K4012) at 400 mg/kg using a stock solution of 12.5 mg/ml, prepared in normal saline. After two weeks of 5-FC treatment, the mice were followed to assess mortality within each group. A Kaplan Meyer analysis was performed to determine the effect of 5-FC treatment for each group. The experiment was continued for 100 days after initiation.
As expected, control mice injected with saline survived the duration of the experiment. […] This group serves as a second control against mice injected with CD containing fusion constructs. […]

In the case of `Nc1nc(=O)[nH]cc1F` [5-FC, 5-fluorocytosine], in the data set with NIH 3T3 and CEM cells, the “effect of 5-FC on untransduced cells” value is “resistant”. In data set [1], the “adverse effects of 5-FC injections” value was “No adverse effects”.
